# In patent publication US8389557B2, “Triazole derivatives useful as Axl inhibitors” (Rigel Pharmaceuticals, Inc., priority 2005, dated 2013):
# Target: T1, Axl (Homo sapiens, UniProt P30530)
# T1 construct: endogenous in cells; host or cells: HeLa cells
# T1 sequence (P30530 26-894): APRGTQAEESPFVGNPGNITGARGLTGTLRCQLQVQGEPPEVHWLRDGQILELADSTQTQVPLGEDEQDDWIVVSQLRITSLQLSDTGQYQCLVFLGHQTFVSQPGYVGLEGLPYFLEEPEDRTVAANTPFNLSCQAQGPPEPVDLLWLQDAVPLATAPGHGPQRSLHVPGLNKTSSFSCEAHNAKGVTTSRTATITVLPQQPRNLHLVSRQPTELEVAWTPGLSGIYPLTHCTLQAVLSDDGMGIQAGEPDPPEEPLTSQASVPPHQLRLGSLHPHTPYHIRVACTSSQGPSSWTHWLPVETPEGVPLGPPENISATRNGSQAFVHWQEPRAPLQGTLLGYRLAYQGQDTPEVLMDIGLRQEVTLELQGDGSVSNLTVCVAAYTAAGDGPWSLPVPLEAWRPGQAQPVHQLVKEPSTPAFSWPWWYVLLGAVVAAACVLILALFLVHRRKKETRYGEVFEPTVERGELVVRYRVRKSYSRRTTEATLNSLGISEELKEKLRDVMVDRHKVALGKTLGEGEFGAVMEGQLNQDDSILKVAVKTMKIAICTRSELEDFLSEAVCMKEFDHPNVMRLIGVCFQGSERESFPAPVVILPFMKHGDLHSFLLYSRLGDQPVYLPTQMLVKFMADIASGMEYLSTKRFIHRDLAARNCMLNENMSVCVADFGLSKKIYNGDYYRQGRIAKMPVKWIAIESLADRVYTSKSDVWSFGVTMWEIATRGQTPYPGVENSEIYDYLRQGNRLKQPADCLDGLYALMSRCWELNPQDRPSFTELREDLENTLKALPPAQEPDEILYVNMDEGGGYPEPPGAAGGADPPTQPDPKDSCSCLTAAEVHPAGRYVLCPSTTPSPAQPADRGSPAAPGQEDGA
# Assay: Phospho-Akt in-cell Western assay (inhibition of Axl activity)
# Format: cell-based
# Method in brief: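 HeLa cells on poly-L-lysine, starved 24 h in 0.5% FCS DMEM with Axl/Fc 500 ng/mL, pre-treated with compound 1 h at 37° C. Axl stimulated 5 min by anti-Axl/anti-mouse antibody cross-linking. Fixed cells probed with anti-phospho-Akt and HRP secondary, chemiluminescence read.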
# [1] = Table 3, Hela cells, Axl antibody cross-linking stimulation, phospho-Akt chemiluminescence
# [2] = inhibition of Axl activity, phospho-Akt in-cell Western assay, Table 1
# [3] = Table 7, Hela cells, Axl antibody cross-linking stimulation, phospho-Akt chemiluminescence
SMILES,IC50 [2],also measured
"COc1cc(Nc2nc(N)n(C(=O)c3ccc4cc[nH]c4c3)n2)ccc1OCCN1CCCC1 [compound 318, 5-amino-1-(1H-indol-6-yl)carbonyl-3-[3-methoxy-4-[2-(pyrrolidin-1-yl)ethoxy]phenylamino]-1H-1,2,4-triazole]",–,IC50 [1]: < 1000 nM
"COc1cc(Nc2nc(N)n(C(=O)c3ccc(-c4csnn4)cc3)n2)ccc1OCCN1CCCC1 [compound 319, 5-amino-1-(4-(1,2,3-thiadiazol-4-yl)phenyl)carbonyl-3-[3-methoxy-4-[2-(pyrrolidin-1-yl)ethoxy]phenylamino]-1H-1,2,4-triazole]",< 1000 nM,–
"CC(C)(C)Oc1ccc(C(=O)n2nc(Nc3ccc(OCCN4CCCCCC4)cc3)nc2N)cc1 [compound 322, 5-amino-1-(4-(tert-butoxy)phenyl)carbonyl-3-[4-[2-(azepan-1-yl)ethoxy]phenylamino]-1H-1,2,4-triazole]",< 1000 nM,–
"Nc1nc(Nc2ccc(OCCN3CCCCCC3)cc2)nn1C(=O)c1ccc2cc[nH]c2c1 [compound 323, 5-amino-1-(1H-indol-6-yl)carbonyl-3-[4-[2-(azepan-1-yl)ethoxy]phenylamino]-1H-1,2,4-triazole]",–,IC50 [1]: < 1000 nM
"Nc1nc(Nc2ccc(OCCN3CCCC3)cc2)nn1C(=S)Nc1c(F)cc(F)cc1F [compound 325, 5-amino-N-(2,4,6-trifluorophenyl)-3-[4-[2-(pyrrolidin-1-yl)ethoxy]phenylamino]-1H-1,2,4-triazole-1-carbothioamide]",–,IC50 [3]: 1000 to 10000 nM
"Nc1nc(Nc2ccc(OCCN3CCCC3)cc2)nn1C(=S)Nc1c(F)cccc1F [compound 326, 5-amino-N-(2,6-difluorophenyl)-3-[4-[2-(pyrrolidin-1-yl)ethoxy]phenylamino]-1H-1,2,4-triazole-1-carbothioamide]",–,IC50 [3]: < 1000 nM
"CC(C)Oc1ccc(C(=O)n2nc(Nc3ccccc3)nc2N)cc1 [compound 333, 5-amino-1-(4-(iso-propoxy)phenyl)carbonyl-3-(phenylamino)-1H-1,2,4-triazole]",1000 to 10000 nM,–
"Nc1nc(Nc2ccccc2)nn1C(=O)c1ccc(-c2csnn2)cc1 [compound 334, 5-amino-1-(4-(1,2,3-thiadiazol-4-yl)phenyl)carbonyl-3-(phenylamino)-1H-1,2,4-triazole]",> 20000 nM,–
"Nc1nc(Nc2ccccc2)nn1C(=O)c1ccc(N2CCOCC2)cc1 [compound 335, 5-amino-1-(4-(morpholin-4-yl)phenyl)carbonyl-3-(phenylamino)-1H-1,2,4-triazole]",> 20000 nM,–

# Second part, led by results:
IC50 [2],SMILES,also measured
< 1000 nM,"CC(C)(C)c1ccc(C(=O)n2nc(Nc3ccc(OCCN4CCCCCC4)cc3)nc2N)cc1 [compound 320, 5-amino-1-(4-(tert-butyl)phenyl)carbonyl-3-[4-[2-(azepan-1-yl)ethoxy]phenylamino]-1H-1,2,4-triazole]",–
< 1000 nM,"CC(C)Oc1ccc(C(=O)n2nc(Nc3ccc(OCCN4CCCCCC4)cc3)nc2N)cc1 [compound 321, 5-amino-1-(4-(iso-propoxy)phenyl)carbonyl-3-[4-[2-(azepan-1-yl)ethoxy]phenylamino]-1H-1,2,4-triazole]",–
< 1000 nM,"Nc1nc(Nc2ccc(OCCN3CCCCCC3)cc2)nn1C(=O)c1ccc(-c2csnn2)cc1 [compound 324, 5-amino-1-(4-(1,2,3-thiadiazol-4-yl)phenyl)carbonyl-3-[4-[2-(azepan-1-yl)ethoxy]phenylamino]-1H-1,2,4-triazole]",–
< 1000 nM,"Nc1nc(Nc2ccc(OCCN3CCCC3)cc2)nn1C(=O)c1cccc(N2CCOCC2)c1 [compound 331, 5-amino-1-(3-(morpholin-4-yl)phenyl)carbonyl-3-[4-[2-(pyrrolidin-1-yl)ethoxy]phenylamino]-1H-1,2,4-triazole]",–
< 1000 nM,"Nc1nc(Nc2ccc(OCCN3CCCC3)cc2)nn1C(=O)c1ccc(OCCN2CCOCC2)cc1 [compound 332, 5-amino-1-[4-(2-(morpholin-4-yl)ethoxy)phenyl]carbonyl-3-[4-[2-(pyrrolidin-1-yl)ethoxy]phenylamino]-1H-1,2,4-triazole]",–
